From patent US20250269036A1, “METHODS FOR ENHANCEMENT OF ENGINEERED CELL THERAPIES IN CANCER TREATMENT” (PURDUE RESEARCH FOUNDATION, priority 2021, published 2025)

Key:
[1] = system: IL-4, IL-6 plus IL-13 stimulated THP-1 cells (M2-like macrophages); test: Reprogramming of M2-polarized THP-1 macrophages, marker mRNA by qPCR; type: cell-based, human
Procedure: THP-1 cells were initially selected as a model system because this human monocytic cell line is known to acquire an M2-like phenotype and produce significant quantities of anti-inflammatory cytokines upon stimulation with IL-4, IL-6 plus IL-13.
THP-1 cells were seeded into 96-well plates at a density of 60,000 cells/well. Cells were differentiated into unpolarized macrophages by 48 hours incubation with 200 nM PMA followed by 24 hours incubation in fresh RPMI medium. […] Cultures were maintained at 37° C. in a humidified 5% CO2 incubator.
Total RNA was isolated from 1×10^5-2×10^5 macrophages using a Quick-RNATM MicroPrep kit (Zymo Research, Irvine, CA) according to the manufacturer-recommended protocol. […] IL-6, CXCL10, IFNα, IFN-γ and CD86 were used as markers for an M1 phenotype, while CCL18, CD206, CD163 and Arg1 were employed as markers for the M2 phenotype. IL-1β, PDGFβ, MMP9 and TIMP 3 were measured as indicators of an anti-inflammatory phenotype. IRAK-4 was used as an indicator of TLR7 stimulation. To control for specificity of the amplification products, a melting curve analysis was performed. […] Each sample was analyzed independently in triplicate for each marker.
Primarily, human monocytic (THP-1) cells were induced to the M2-like phenotype using the methods and materials previously described. In particular, THP-1 cells were seeded into 96-well plates at a density of 60,000 cells/well. Cells were differentiated into unpolarized macrophages by 48h incubation with 200 nM PMA followed by 24 hours incubation in fresh RPMI medium. The resulting macrophages were polarized to an M2-like phenotype by incubation with 20 ng/ml IL-4, 20 ng/ml IL-13, and 5 ng/mL IL-6 for 48h. Cultures were maintained at 37° C. in a humidified 5% CO2 incubator.
In addition to the nonconjugated TLR7 agonist, conjugated compounds of the present disclosure were likewise evaluated. […] The cells were subsequently harvested for gene analysis by qPCR and the relative expression of CCL18 (FIG. 14A), CD206 (FIG. 14B), and IL-1β (FIG. 14C) analyzed.

[2] = system: M2-induced THP-1 macrophages; test: Secreted CCL18 and IL-1β in THP-1 macrophage supernatants by ELISA; type: cell-based, human
Procedure: FIGS. 6A-6D show graphical data representative of various marker levels measured from M2-induced THP-1 macrophages treated with different concentrations of drugs for 48 hours (FIGS. 6A and 6B) or for 2 hours, then displaced with fresh medium and cultured for the remaining 46 hours (FIGS. 6C and 6D). In both cases, cell supernatants were collected and secreted CCL18 protein and IL-1β was detected by ELISA.
CCL18 and IL-1β were quantified in induced THP-1 cell supernatants using a human DuoSet ELISA Development System (R&D Systems Europe, Abingdon, UK; #DY394-05) and an IL-1 beta Human ELISA Kit (Thermo Fisher Scientific, Waltham, MA; #BMS224-2) as described by manufactures. BALF samples were analyzed for mouse IFN-γ using ELISA MAX™ Deluxe (Biolegend, San Diego, CA; #430804).

[3] = Stability during incubation in culture media; type: physicochemical; conditions: 37° C. in the culture media, 48 hours
Procedure: Indeed, Compound 1B retained the original structure after 48 hours incubation.

BM-induced mice = system: BM-induced mice
Procedure: Studies were also performed to determine if macrophages in pulmonary fibrotic lungs might be specifically targeted with folate-linked drugs in vivo. […] (The BM model is widely regarded to be helpful in terms of enabling mechanistic investigations relevant to fibrogenesis in an in vivo context.)
More specifically, eight-week-old C57BL6 male mice from Charles River (average weight 22 g to 25 g) were housed under pathogen-free conditions at room temperature (22° C.) under a 12 hours light-dark cycle. Mice were placed on a folate deficient chow (Envigo Teklad Global Rat Food Pellets) for 1 week prior to the BM or PBS instillation. Fresh water and folate-deficient diet were freely available. All animal procedures were approved by the Purdue Animal Care and Use Committee in accordance with National Institute of Health guidelines.
Thereafter, the mice were anesthetized with ketamine/xylazine and the necks of the mice were shaved using hair remover lotion and then sterilized with 70% alcohol. A small incision was made on the neck to visualize the trachea. Mice were positioned at a 75-degree angle and injected intratracheally with 100 μL sterile PBS or BM (Cayman Chemicals, Ann Arbor, MI; #13877) dissolved in PBS (0.75 mg/kg) using a 1 cc syringe with 26 G needle. Body weights were monitored every other day throughout the experiment.
After 2 hours, mice were sacrificed using CO2 asphyxiation and an incision in the skin from the abdomen to neck was immediately made to expose the lungs and trachea. A small cut in the upper trachea was then introduced for insertion of a blunted, 22-gauge needle, and a nylon string was tied around the trachea to seal the trachea around the needle. The trachea (containing the inserted needle), lungs and heart were then removed en masse by carefully cutting the connective tissue beneath the lungs, and the bronchus of left lung was clipped with a Dieffenbach vessel clip. The right lung was injected with PBS and aspirated 3 times using a 1 ml syringe, and the recovered lavage fluid was saved on ice.
Bronchoalveolar lavage fluid (BALF) was then analyzed to determine how the targeted TLR7 agonist works. BALF samples were centrifuged at 1500 rpm for 5 min at 4° C. and the supernatant was aliquoted and stored at −80° C. for cytokine/chemokine analyses. Cell pellets were resuspended and cultured in pre-warmed RPMI 1640 medium for 2 hours and then washed 3× with pre-warmed PBS prior to harvesting for qPCR assay. The right lung was then tied with a nylon string and used for subsequent analysis of hydroxyproline content. The left lung was inflated with 1 ml PBS using the inserted syringe and transferred to 10% formalin solution for subsequent histological analyses.
Lobes of the right lung collected above were weighed, placed in a pressure-tight vial (Supelco Inc., Bellefonte, PA; #27003), and hydrolyzed with 6N HCl (10 ml/g, v/w) in a sand bath at 120° C. for 3.5 hours. The hydrolyzed solution was cooled at 4° C. for 15 min and transferred to a 1.5 ml Eppendorf tube prior to centrifugation at 12,000 rcf for 15 min at 4° C. Supernatant was carefully collected, aliquoted and used for hydroxyproline (HYP) analysis.
For the subsequent HYP analysis, 10 μl of sample was transferred into a 96-well plate and neutralized with 10 μl of 5.3 M sodium hydroxide solution. Isopropanol (40 μl) was then added to each well followed by 20 μl of oxidation buffer and the mixture was incubated on a shaker at room temperature for 5 min. […]

[4] = system: M2-induced human monocyte-derived macrophages; test: Reprogramming of M2-induced human monocyte-derived macrophages; type: cell-based; conditions: 100 nM, 2 hours + 46 hours, excess FA-glucosamine
Procedure: Changes in both sets of cytokines were inhibited by blockade of unoccupied folate receptors with excess FA-glucosamine (2+46h, competition).

healthy mice = test: Plasma cytokine levels in healthy mice after tail vein injection; type: in vivo
Procedure: (FIGS. 20A-C) Measurement of plasma IL-6 (FIG. 20A), IFNα (FIG. 20B) and TNFα (FIG. 20C) (n=3). (FIGS. 20D-F). The effect of drug concentration on plasma levels of IL-6 (FIG. 20D), IFNα (FIG. 20E), and TNFα (FIG. 20F) was determined at 1.5h, 1h, or 1h after treatment, respectively (n=2) (FIG. 20G).
(FIGS. 36C and 36D). The effect of drug on plasma levels of IL-6 (FIG. 36C) and TNFα (FIG. 36D) was determined at 1 hour or 1.5 hours after treatment.

fibrotic lungs = test: Staining of healthy and fibrotic lung sections (DAPI, anti-F4/80, anti-CD206); type: in vivo, mice; conditions: differences between treated groups
Description: Sections from the same healthy and fibrotic lungs described in FIG. 6 were stained with DAPI (nuclei; blue), anti-F4/80 (macrophages; red), and anti-CD206 (M2 macrophage marker; green), and images were obtained with a Leica Versa 8 whole-slide scanner as described in Methods (n=2). Scale bars, 100 μm.

[5] = 2 hours with drug, then drug-free medium
[6] = incubated continuously for 48 hours, ELISA

## CCCCc1nc2c(N)nc3ccccc3c2n1CC(C)(C)OC(=O)OCCSSCC(NC(=O)CCC(NC(=O)c1ccc(NCc2cnc3nc(N)[nH]c(=O)c3n2)cc1)C(=O)O)C(=O)O (centres unmarked) [Compound 1B]
[1]; 2 hours incubation, harvested immediately or after further 46 hours
  cancer/M2-type markers (CCL18, CD206, IL-1β, PDGFβ mRNA): downregulated cancer/M2-type markers of macrophages more than Compound 1A
[1]; [5]
  TNFα induction: dramatically improved
  potency in reprogramming relative to comparator: superior potency relative to Compound 1A
[1]; 48 hours incubation, various concentrations
  M2 to M1 marker changes (FIGS. 3A-3F): same qualitative changes were observed, only the magnitude of the impact of Compound 1B was somewhat reduced
[2]; drug exposure limited to 2 hours, then 46 hours fresh medium
  reduction of secreted CCL18 and IL-1β, comparison of compounds: superior
[2]; [6]
  secreted CCL18 polypeptide: reductions
  secreted IL-1β polypeptide: reductions
[3]
  stability during incubation: remained stable
BM-induced mice; 0, 1, 3 or 10 nmoles
  lung histology with increasing dose: lung histology improved
BM-induced mice; 0, 1, 3 or 10 nmoles every other day from day 10, day 21
  hydroxyproline content of lung hydrolysates, order of efficacy by dose: 10 nmol/mouse>3 nmol/mouse>1 nmol/mouse>0 nmol/mouse
BM-induced mice; different doses, day 21
  total number of BALF cells: decreased in a dose-dependent manner
BM-induced mice; tail vein injection
  collagen stain (Masson's trichrome): strongly suppressed
BM-induced mice; treated beginning on day 10
  lung architecture (H&E staining): lung architecture that resembles that of healthy mice
[4]
  downregulation of biomarkers in presence of competitor: blocked
Healthy mice; effect of drug concentration, 1.5h, 1h or 1h after treatment
  inflammatory cytokine release, dose comparison: stimulates less inflammatory cytokine release than half the dose of Compound 1A
Healthy mice; healthy mice, tail vein, 10 nmol
  systemic cytokine release (plasma IL-6, IFNα, TNFα): does not
Fibrotic lungs
  proinflammatory response in vivo (lung section staining): robust proinflammatory response
